Where a SMILES comes first, the peptide text is derived from it. [ ]: non-standard residue; d: D form. Phe(4-Br) = N[C@@H](Cc1ccc(Br)cc1)C(=O)O; NMeL = CN[C@@H](CC(C)C)C(=O)O; Nle = CCCC[C@H](N)C(=O)O; Aib = CC(C)(N)C(=O)O
Test system: Ldlr^−/− mice
Assay: Angiotensin II-induced abdominal aortic aneurysm
Type: in vivo
Procedure: Experimental Animals and Protocols. Male LDL receptor deficient (Ldlr^−/−) mice were generated and bred in C57BL/6 background. All animal experiments were carried out in accordance with the Canadian Council on Animal Care Guidelines, and animal protocols were reviewed and approved by the Animal Care and Use Committee at the University of Alberta.
Alzet micro-osmotic pump (model 1002 or 1004; Durect Co.) was implanted subcutaneously at the dorsum of the neck to infuse Ang II (1.5 mg/kg^−1d^−1) or vehicle (saline) for 28 days in high fat fed Ldlr^−/− mice.
After 4 weeks of Ang II or saline infusion, mice underwent whole body perfuse-fixation, via the left ventricle, with 10% buffered formalin (80 mmHg, 20 min). […] Collagen positive area was quantified by the morphometric analysis using the Metamorph Basic (version 7.7.0.0) software. In situ DNA fragmentation was detected in 5-μm thick FFPE sections of aorta using the commercially available terminal deoxynucleotidyl transferase-mediated dUTP nick-end labeling (TUNEL) assay kit according to manufacturer's instructions (Invitrogen) as previously described. […] Thickness of the medial layer of the aorta was measured in calibrated images as the mean distance between the external elastin lamella and the internal elastin lamella from 8 randomly selected fields of the cross-section of an aorta using the Metamorph Basic software (version 7.7.0). […]

Structure (SMILES): CCCC[C@H](NC(=O)[C@@H]1CCCN1C(=O)CNC(=O)[C@H](CCCCN)NC(=O)[C@H](Cc1c[nH]cn1)NC(=O)[C@H](CO)NC(=O)[C@H](CC(C)C)N(C)C(=O)[C@H](CCCNC(=N)N)NC(=O)[C@@H]1CCCN1C(=O)[C@H](CCCNC(=N)N)NC(=O)[C@H](CCC(N)=O)NC(=O)[C@H](CCCNC(=N)N)NC(=O)[C@H](CCCNC(=N)N)NC(=O)[C@H](Cc1ccccc1)NC(=O)[C@@H](N)CCCCN)C(=O)NC(C)(C)C(=O)N[C@@H](Cc1ccc(Br)cc1)C(=O)O [Peptide 11] (H-KFRRQRPR[NMeL]SHKGP[Nle][Aib][Phe(4-Br)]-OH; C-terminus assumed)
- oxidative stress (DHE fluorescence and NADPH oxidase activity) (aorta of Ldlr^−/− mice, Ang II + peptide): suppression of oxidative stress
- formation of abdominal aortic aneurysm (high fat fed Ldlr^−/− mice, Ang II 1.5 mg/kg/d 28 days, peptide 3 mg/kg/d intraperitoneal 28 days): markedly prevented the formation of abdominal aortic aneurysm
